Six compounds from US11382918B2, “Methods for treating Huntington's Disease” (PTC Therapeutics, Inc., priority 2017, dated 2022) can be followed below.

Counter-ions that a name gives are not always drawn.

The assay deals with Endogenous Huntingtin Protein (HTT). Put plainly: Endogenous Huntingtin Protein Assay (ELISA-based MSD electrochemiluminescence). It is filed as cell-based. Particulars: Table 1. The essentials:
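HTT protein in lysates was measured by electrochemiluminescence on the MSD platform. Rabbit monoclonal 5656S followed by SULFO-TAG anti-rabbit antibody served for detection after overnight 4 °C capture with MAB2166 or the polyglutamine-directed MW1 antibody.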
Regarding `CCN1CCC(c2cn3c(=O)cc(-c4cc(F)c5nn(C)cc5c4)nc3c(C)n2)CC1` [compound 872, 7-(1-ethylpiperidin-4-yl)-2-(7-fluoro-2-methyl-2H-indazol-5-yl)-9-methyl-4H-pyrazino[1,2-a]pyrimidin-4-one], the IC50 was < 100 nM.
Then `CCN1CCC(c2cn3c(=O)cc(-c4ccc5nc(C)cn5n4)nc3c(C)n2)CC1` [compound 873, 7-(1-ethylpiperidin-4-yl)-9-methyl-2-(2-methylimidazo[1,2-b]pyridazin-6-yl)-4H-pyrazino[1,2-a]pyrimidin-4-one], with 100 to 500 nM; and `CCN1CCC(c2cn3c(=O)cc(-c4cc(C)c5nn(C)cc5c4)nc3c(C)n2)CC1` [compound 874, 2-(2,7-dimethyl-2H-indazol-5-yl)-7-(1-ethylpiperidin-4-yl)-9-methyl-4H-pyrazino[1,2-a]pyrimidin-4-one hydrochloride (1:1)], with 100 to 500 nM.
Regarding `Cc1cn2cc(-c3cc(=O)n4cc(C5CCNCC5)nc(C)c4n3)cc(F)c2n1` [compound 875, 2-(8-fluoro-2-methylimidazo[1,2-a]pyridin-6-yl)-9-methyl-7-(piperidin-4-yl)-4H-pyrazino[1,2-a]pyrimidin-4-one hydrochloride (1:2)], the IC50 is < 100 nM.
For `CCN1CCC(c2cn3c(=O)cc(-c4cc5c(C)nc(C)cn5c4)nc3c(C)n2)CC1` [compound 876, 2-(1,3-dimethylpyrrolo[1,2-a]pyrazin-7-yl)-7-(1-ethylpiperidin-4-yl)-9-methyl-4H-pyrazino[1,2-a]pyrimidin-4-one] the value was 1000 to 3000 nM.
Then `CCN1CCC(c2cn3c(=O)cc(-c4cc(F)c5nc(C)cn5c4)nc3c(C)n2)CC1` [compound 877, 7-(1-ethylpiperidin-4-yl)-2-(8-fluoro-2-methylimidazo[1,2-a]pyridin-6-yl)-9-methyl-4H-pyrazino[1,2-a]pyrimidin-4-one], with < 100 nM.
